Reference: US11653679B2, “High-purity steviol glycosides” (PureCircle Sdn Bhd, priority 2014, dated 2023)

Columns and labels:
[1] = Solubility of reb M in water and solvents; type: physicochemical
Experimental: Other properties of the pure reb M compound include a melting point of 249-250° C., and a specific rotation of [α]D^25−19.0° in 50% ethanol (C=1.0). The solubility of reb Min water is around 0.3%, and increases with an increase in temperature.
Reb M is soluble in diluted solutions of methanol, ethanol, n-propanol, and isopropanol. However, it is insoluble in acetone, benzene, chloroform, and ether.

[2] = Sweetness of reb M compared to a 10% sucrose solution
Excerpt: The high purity reb M obtained in this invention, having a molecular weight of 1291.29, a molecular formula of C56H90O33, CAS registry number 1220616-44-3, and the structure presented in FIG. 1, is in the form of a white and odorless powder. The compound is about 200 times sweeter than sugar when compared to a 10% sucrose solution.

[3] = Heat and pH stability of reb M; type: physicochemical
[4] = Catalytic reaction Rebaudioside A to Rebaudioside D with in-vitro produced UGT91D2 (Example 5); type: biochemical; conditions: after 120 h, in-vitro produced UGT91D2, 0.1 mM Rebaudioside A, 30° C.
Experimental: The total volume of the reaction was 0.5 mL with the following composition: 50 mM sodium phosphate buffer pH 7.2, 3 mM MgCl2, 3.8 mM UDP-glucose, 0.1 mM Rebaudioside A and 180 μL of in-vitro produced UGT91D2. The reactions were run at 30° C. on an orbitary shaker at 135 rpm. For each sample, 450 μl of reaction mixture was quenched with 45 μL of 2N H2SO4 and 405 μL of 60% MeOH. After centrifugation, the supernatant was analyzed by HPLC (CAD). HPLC indicated a 4.7% conversion of rebaudioside A to rebaudioside D after 120 h.

Molecule | solubility in acetone, benzene, chloroform, and ether [1] | solubility in diluted solutions of methanol, ethanol, n-propanol, and isopropanol [1] | solubility in water ([1]; increases with an increase in temperature) | sweetness relative to sugar [2] | heat and pH stability [3] | conversion of rebaudioside A to rebaudioside D [4]
C=C1C[C@@]23CC[C@H]4[C@@](C)(CCC[C@@]4(C)C(=O)O[C@@H]4O[C@H](CO)[C@@H](O)[C@H](O[C@@H]5O[C@H](CO)[C@@H](O)[C@H](O)[C@H]5O)[C@H]4O[C@@H]4O[C@H](CO)[C@@H](O)[C@H](O)[C@H]4O)[C@@H]2CC[C@]1(O[C@@H]1O[C@H](CO)[C@@H](O)[C@H](O[C@@H]2O[C@H](CO)[C@@H](O)[C@H](O)[C@H]2O)[C@H]1O[C@@H]1O[C@H](CO)[C@@H](O)[C@H](O)[C@H]1O)C3 [reb M, Rebaudioside M] | insoluble | soluble | around 0.3% | about 200 times sweeter than sugar | heat and pH-stable | –
UGT91D2: UDP-glucosyltransferase, Genbank accession no. ACE87855.1 (protein, UniProt B3VI56 1-473, looked up) UDP-glycosyltransferase 91D2: MATSDSIVDDRKQLHVATFPWLAFGHILPYLQLSKLIAEKGHKVSFLSTTRNIQRLSSHISPLINVVQLTLPRVQELPEDAEATTDVHPEDIPYLKKASDGLQPEVTRFLEQHSPDWIIYDYTHYWLPSIAASLGISRAHFSVTTPWAIAYMGPSADAMINGSDGRTTVEDLTTPPKWFPFPTKVCWRKHDLARLVPYKAPGISDGYRMGLVLKGSDCLLSKCYHEFGTQWLPLLETLHQVPVVPVGLLPPEVPGDEKDETWVSIKKWLDGKQKGSVVYVALGSEVLVSQTEVVELALGLELSGLPFVWAYRKPKGPAKSDSVELPDGFVERTRDRGLVWTSWAPQLRILSHESVCGFLTHCGSGSIVEGLMFGHPLIMLPIFGDQPLNARLLEDKQVGIEIPRNEEDGCLTKESVARSLRSVVVEKEGEIYKANARELSKIYNDTKVEKEYVSQFVDYLEKNTRAVAIDHES | – | – | – | – | – | 4.7%
